Calls of active or inactive are those of the source. The calls are words filed in the database; no cut-off is given here.
tested on: Mus musculus; assay: Reduction in overnight food intake in CCK1 receptor deficient mouse at 10 mg/kg; format: functional, organism-based; set-up: dose 10 mg/kg

Compound	Activity
CCOc1cccc(-n2cc(C(=O)N3CCN(c4cc(C(=O)O)c5ccccc5c4)CC3)nc2-c2ccc(C)cc2)c1	inactive
CCOc1cccc(-n2cc(C(=O)N3CCN(c4cc(C(=O)O)c5ccccc5c4)CC3)nc2-c2ccc(C)cc2F)c1	inactive

biological target: T1, Cholecystokinin receptor type A (Homo sapiens) (UniProt P32238); assay: Agonist activity against human CCK1 receptor assessed as receptor activation at 10000 nM; format: functional
T1 sequence (whole entry): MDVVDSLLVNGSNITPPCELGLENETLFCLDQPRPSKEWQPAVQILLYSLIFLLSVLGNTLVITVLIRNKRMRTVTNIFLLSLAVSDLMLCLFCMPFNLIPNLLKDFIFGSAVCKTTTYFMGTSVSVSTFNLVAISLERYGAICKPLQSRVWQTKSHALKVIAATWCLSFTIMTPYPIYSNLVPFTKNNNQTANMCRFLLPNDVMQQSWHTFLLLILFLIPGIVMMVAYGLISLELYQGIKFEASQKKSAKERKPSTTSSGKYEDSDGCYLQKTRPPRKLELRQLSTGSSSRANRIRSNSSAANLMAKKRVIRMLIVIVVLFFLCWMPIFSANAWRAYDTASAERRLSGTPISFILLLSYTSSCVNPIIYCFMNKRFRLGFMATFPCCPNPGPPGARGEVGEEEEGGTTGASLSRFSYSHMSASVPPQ

Compound	Activity
Cc1ccc(-c2nc(C(=O)N3CCN(c4cnc5ccccc5c4)CC3)cn2-c2ccc3c(c2)OCCO3)cc1	94%
Cc1ccc(-c2nc(C(=O)N3CCN(c4cc(C(=O)O)c5ccccc5c4)CC3)cn2-c2ccc3c(c2)OCCO3)c(F)c1	71%
O=C(c1cn(-c2ccc3c(c2)OCCO3)c(-c2ccc(F)cc2)n1)N1CCN(c2cnc3ccccc3c2)CC1	101%
Cc1ccc(-c2nc(C(=O)N3CCN(c4cc(C(=O)O)c5ccccc5c4)CC3)cn2-c2ccc3c(c2)OCCO3)cc1	107%
CCOc1cccc(-n2cc(C(=O)N3CCN(c4cc(C(=O)O)c5ccccc5c4)CC3)nc2-c2ccc(C)cc2)c1	105%
CCOc1cccc(-n2cc(C(=O)N3CCN(c4cc(C(=O)O)c5ccccc5c4)CC3)nc2-c2ccc(C)cc2F)c1	73%

Continued, values first:

Activity	Compound
105%	CCOc1cccc(-n2cc(C(=O)N3CCN(c4cnc5ccccc5c4)CC3)nc2-c2ccc(C)cc2)c1
95%	CCOc1cccc(-n2cc(C(=O)N3CCN(c4cc(C(=O)O)c5ccccc5c4)CC3)nc2-c2ccc(F)cc2)c1
76%	CCOc1cccc(-n2cc(C(=O)N3CCN(c4cc(C(=O)O)c5ccccc5c4)CC3)nc2-c2ccc(F)cc2F)c1
86%	CCOc1cccc(-n2cc(C(=O)N3CCN(c4cnc5ccccc5c4)CC3)nc2-c2ccc(C)cc2F)c1
92%	CCOc1cccc(-n2cc(C(=O)N3CCN(c4cnc5ccccc5c4)CC3)nc2-c2ccc(F)cc2)c1
97%	O=C(O)c1cc(N2CCN(C(=O)c3cn(-c4ccc5c(c4)OCCO5)c(-c4ccc(F)cc4)n3)CC2)cc2ccccc12

biological target: T2, Gastrin/cholecystokinin type B receptor (Homo sapiens) (UniProt P32239); assay: Agonist activity against human CCK2 receptor assessed as receptor activation at 10000 nM; format: functional
T2 sequence (whole entry): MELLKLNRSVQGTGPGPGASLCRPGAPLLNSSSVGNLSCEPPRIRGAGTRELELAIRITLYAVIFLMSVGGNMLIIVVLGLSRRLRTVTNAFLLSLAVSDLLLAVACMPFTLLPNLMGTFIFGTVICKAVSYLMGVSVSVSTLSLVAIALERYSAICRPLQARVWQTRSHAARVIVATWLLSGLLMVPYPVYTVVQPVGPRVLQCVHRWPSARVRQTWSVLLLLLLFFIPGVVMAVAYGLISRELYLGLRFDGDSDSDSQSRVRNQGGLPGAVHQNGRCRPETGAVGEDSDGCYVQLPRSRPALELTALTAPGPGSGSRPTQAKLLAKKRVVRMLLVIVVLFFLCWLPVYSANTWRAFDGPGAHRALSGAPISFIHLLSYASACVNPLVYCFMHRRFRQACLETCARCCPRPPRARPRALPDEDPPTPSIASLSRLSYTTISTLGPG

Compound	Activity
Cc1ccc(-c2nc(C(=O)N3CCN(c4cnc5ccccc5c4)CC3)cn2-c2ccc3c(c2)OCCO3)cc1	< 36%
Cc1ccc(-c2nc(C(=O)N3CCN(c4cc(C(=O)O)c5ccccc5c4)CC3)cn2-c2ccc3c(c2)OCCO3)c(F)c1	< 36%
O=C(c1cn(-c2ccc3c(c2)OCCO3)c(-c2ccc(F)cc2)n1)N1CCN(c2cnc3ccccc3c2)CC1	< 36%
Cc1ccc(-c2nc(C(=O)N3CCN(c4cc(C(=O)O)c5ccccc5c4)CC3)cn2-c2ccc3c(c2)OCCO3)cc1	< 36%
CCOc1cccc(-n2cc(C(=O)N3CCN(c4cc(C(=O)O)c5ccccc5c4)CC3)nc2-c2ccc(C)cc2)c1	< 36%
CCOc1cccc(-n2cc(C(=O)N3CCN(c4cc(C(=O)O)c5ccccc5c4)CC3)nc2-c2ccc(C)cc2F)c1	< 36%

Results, then the compound that gave them:

Activity	Compound
< 36%	CCOc1cccc(-n2cc(C(=O)N3CCN(c4cnc5ccccc5c4)CC3)nc2-c2ccc(C)cc2)c1
< 36%	CCOc1cccc(-n2cc(C(=O)N3CCN(c4cc(C(=O)O)c5ccccc5c4)CC3)nc2-c2ccc(F)cc2)c1
< 36%	CCOc1cccc(-n2cc(C(=O)N3CCN(c4cc(C(=O)O)c5ccccc5c4)CC3)nc2-c2ccc(F)cc2F)c1
< 36%	CCOc1cccc(-n2cc(C(=O)N3CCN(c4cnc5ccccc5c4)CC3)nc2-c2ccc(C)cc2F)c1
< 36%	CCOc1cccc(-n2cc(C(=O)N3CCN(c4cnc5ccccc5c4)CC3)nc2-c2ccc(F)cc2)c1
< 36%	O=C(O)c1cc(N2CCN(C(=O)c3cn(-c4ccc5c(c4)OCCO5)c(-c4ccc(F)cc4)n3)CC2)cc2ccccc12

tested on: Mus musculus; assay: Reduction in overnight food intake in wild-type mouse at 10 mg/kg; format: functional, organism-based; set-up: dose 10 mg/kg

Compound	Activity
CCOc1cccc(-n2cc(C(=O)N3CCN(c4cc(C(=O)O)c5ccccc5c4)CC3)nc2-c2ccc(C)cc2)c1	Active
CCOc1cccc(-n2cc(C(=O)N3CCN(c4cc(C(=O)O)c5ccccc5c4)CC3)nc2-c2ccc(C)cc2F)c1	Active

biological target: T2, Gastrin/cholecystokinin type B receptor (Homo sapiens); assay: Agonist activity against human CCK2 receptor; format: functional

Compound	Activity
Cc1ccc(-c2nc(C(=O)N3CCN(c4cnc5ccccc5c4)CC3)cn2-c2ccc3c(c2)OCCO3)cc1	inactive
Cc1ccc(-c2nc(C(=O)N3CCN(c4cc(C(=O)O)c5ccccc5c4)CC3)cn2-c2ccc3c(c2)OCCO3)c(F)c1	inactive
O=C(c1cn(-c2ccc3c(c2)OCCO3)c(-c2ccc(F)cc2)n1)N1CCN(c2cnc3ccccc3c2)CC1	inactive
Cc1ccc(-c2nc(C(=O)N3CCN(c4cc(C(=O)O)c5ccccc5c4)CC3)cn2-c2ccc3c(c2)OCCO3)cc1	inactive
CCOc1cccc(-n2cc(C(=O)N3CCN(c4cc(C(=O)O)c5ccccc5c4)CC3)nc2-c2ccc(C)cc2)c1	inactive
CCOc1cccc(-n2cc(C(=O)N3CCN(c4cc(C(=O)O)c5ccccc5c4)CC3)nc2-c2ccc(C)cc2F)c1	inactive

Now from value to compound:

Activity	Compound
inactive	CCOc1cccc(-n2cc(C(=O)N3CCN(c4cnc5ccccc5c4)CC3)nc2-c2ccc(C)cc2)c1
inactive	CCOc1cccc(-n2cc(C(=O)N3CCN(c4cc(C(=O)O)c5ccccc5c4)CC3)nc2-c2ccc(F)cc2)c1
inactive	CCOc1cccc(-n2cc(C(=O)N3CCN(c4cc(C(=O)O)c5ccccc5c4)CC3)nc2-c2ccc(F)cc2F)c1
inactive	CCOc1cccc(-n2cc(C(=O)N3CCN(c4cnc5ccccc5c4)CC3)nc2-c2ccc(C)cc2F)c1
inactive	CCOc1cccc(-n2cc(C(=O)N3CCN(c4cnc5ccccc5c4)CC3)nc2-c2ccc(F)cc2)c1
inactive	O=C(O)c1cc(N2CCN(C(=O)c3cn(-c4ccc5c(c4)OCCO5)c(-c4ccc(F)cc4)n3)CC2)cc2ccccc12

biological target: T2, Gastrin/cholecystokinin type B receptor (Homo sapiens); assay: Inhibition of human CCK2 receptor at 10000 nM

Compound	inhibition
Cc1ccc(-c2nc(C(=O)N3CCN(c4cnc5ccccc5c4)CC3)cn2-c2ccc3c(c2)OCCO3)cc1	< 24%
Cc1ccc(-c2nc(C(=O)N3CCN(c4cc(C(=O)O)c5ccccc5c4)CC3)cn2-c2ccc3c(c2)OCCO3)c(F)c1	< 24%
O=C(c1cn(-c2ccc3c(c2)OCCO3)c(-c2ccc(F)cc2)n1)N1CCN(c2cnc3ccccc3c2)CC1	< 24%
Cc1ccc(-c2nc(C(=O)N3CCN(c4cc(C(=O)O)c5ccccc5c4)CC3)cn2-c2ccc3c(c2)OCCO3)cc1	< 24%
CCOc1cccc(-n2cc(C(=O)N3CCN(c4cc(C(=O)O)c5ccccc5c4)CC3)nc2-c2ccc(C)cc2)c1	< 24%
CCOc1cccc(-n2cc(C(=O)N3CCN(c4cc(C(=O)O)c5ccccc5c4)CC3)nc2-c2ccc(C)cc2F)c1	< 24%

More lines, now with the values ahead:

inhibition	Compound
< 24%	CCOc1cccc(-n2cc(C(=O)N3CCN(c4cnc5ccccc5c4)CC3)nc2-c2ccc(C)cc2)c1
< 24%	CCOc1cccc(-n2cc(C(=O)N3CCN(c4cc(C(=O)O)c5ccccc5c4)CC3)nc2-c2ccc(F)cc2)c1
< 24%	CCOc1cccc(-n2cc(C(=O)N3CCN(c4cc(C(=O)O)c5ccccc5c4)CC3)nc2-c2ccc(F)cc2F)c1
< 24%	CCOc1cccc(-n2cc(C(=O)N3CCN(c4cnc5ccccc5c4)CC3)nc2-c2ccc(C)cc2F)c1
< 24%	CCOc1cccc(-n2cc(C(=O)N3CCN(c4cnc5ccccc5c4)CC3)nc2-c2ccc(F)cc2)c1
< 24%	O=C(O)c1cc(N2CCN(C(=O)c3cn(-c4ccc5c(c4)OCCO5)c(-c4ccc(F)cc4)n3)CC2)cc2ccccc12

biological target: T3, Gastrin/cholecystokinin type B receptor (Homo sapiens, UniProt P32239); assay: Inhibition of human CCK2 receptor
T3 sequence (P32239 whole entry): T2 sequence (whole entry)

Compound	IC50
Cc1ccc(-c2nc(C(=O)N3CCN(c4cnc5ccccc5c4)CC3)cn2-c2ccc3c(c2)OCCO3)cc1	> 10000 nM
Cc1ccc(-c2nc(C(=O)N3CCN(c4cc(C(=O)O)c5ccccc5c4)CC3)cn2-c2ccc3c(c2)OCCO3)c(F)c1	> 10000 nM
O=C(c1cn(-c2ccc3c(c2)OCCO3)c(-c2ccc(F)cc2)n1)N1CCN(c2cnc3ccccc3c2)CC1	> 10000 nM
Cc1ccc(-c2nc(C(=O)N3CCN(c4cc(C(=O)O)c5ccccc5c4)CC3)cn2-c2ccc3c(c2)OCCO3)cc1	> 10000 nM

Now from value to compound:

IC50	Compound
> 10000 nM	CCOc1cccc(-n2cc(C(=O)N3CCN(c4cc(C(=O)O)c5ccccc5c4)CC3)nc2-c2ccc(F)cc2F)c1
> 10000 nM	CCOc1cccc(-n2cc(C(=O)N3CCN(c4cnc5ccccc5c4)CC3)nc2-c2ccc(C)cc2F)c1
> 10000 nM	CCOc1cccc(-n2cc(C(=O)N3CCN(c4cnc5ccccc5c4)CC3)nc2-c2ccc(F)cc2)c1

tested on: Mus musculus; assay: Gallbladder emptying activity in mouse assessed as reduction of gallbladder weight at 0.1 mg/kg, po; format: functional, organism-based; set-up: dose 0.1 mg/kg

Compound	Activity
CCOc1cccc(-n2cc(C(=O)N3CCN(c4cnc5ccccc5c4)CC3)nc2-c2ccc(C)cc2)c1	inactive

biological target: T4, Cholecystokinin receptor type A (Homo sapiens, UniProt P32238); assay: Inhibition of human CCK1 receptor
T4 sequence (P32238 whole entry): T1 sequence (whole entry)

Compound	IC50
Cc1ccc(-c2nc(C(=O)N3CCN(c4cnc5ccccc5c4)CC3)cn2-c2ccc3c(c2)OCCO3)cc1	0.2 nM
Cc1ccc(-c2nc(C(=O)N3CCN(c4cc(C(=O)O)c5ccccc5c4)CC3)cn2-c2ccc3c(c2)OCCO3)c(F)c1	0.03 nM
O=C(c1cn(-c2ccc3c(c2)OCCO3)c(-c2ccc(F)cc2)n1)N1CCN(c2cnc3ccccc3c2)CC1	0.12 nM
Cc1ccc(-c2nc(C(=O)N3CCN(c4cc(C(=O)O)c5ccccc5c4)CC3)cn2-c2ccc3c(c2)OCCO3)cc1	0.14 nM

The next lines start with the values.

IC50	Compound
0.07 nM	CCOc1cccc(-n2cc(C(=O)N3CCN(c4cc(C(=O)O)c5ccccc5c4)CC3)nc2-c2ccc(F)cc2F)c1
0.24 nM	CCOc1cccc(-n2cc(C(=O)N3CCN(c4cnc5ccccc5c4)CC3)nc2-c2ccc(C)cc2F)c1
0.6 nM	CCOc1cccc(-n2cc(C(=O)N3CCN(c4cnc5ccccc5c4)CC3)nc2-c2ccc(F)cc2)c1

biological target: T4, Cholecystokinin receptor type A; assay: Agonist activity against human CCK1 receptor; format: functional

Compound	EC50
Cc1ccc(-c2nc(C(=O)N3CCN(c4cnc5ccccc5c4)CC3)cn2-c2ccc3c(c2)OCCO3)cc1	0.12 nM
Cc1ccc(-c2nc(C(=O)N3CCN(c4cc(C(=O)O)c5ccccc5c4)CC3)cn2-c2ccc3c(c2)OCCO3)c(F)c1	0.077 nM
O=C(c1cn(-c2ccc3c(c2)OCCO3)c(-c2ccc(F)cc2)n1)N1CCN(c2cnc3ccccc3c2)CC1	0.26 nM
Cc1ccc(-c2nc(C(=O)N3CCN(c4cc(C(=O)O)c5ccccc5c4)CC3)cn2-c2ccc3c(c2)OCCO3)cc1	0.14 nM

Second part, the compound after the results:

EC50	Compound
0.053 nM	CCOc1cccc(-n2cc(C(=O)N3CCN(c4cc(C(=O)O)c5ccccc5c4)CC3)nc2-c2ccc(F)cc2F)c1
0.13 nM	CCOc1cccc(-n2cc(C(=O)N3CCN(c4cnc5ccccc5c4)CC3)nc2-c2ccc(C)cc2F)c1
0.25 nM	CCOc1cccc(-n2cc(C(=O)N3CCN(c4cnc5ccccc5c4)CC3)nc2-c2ccc(F)cc2)c1
